Laboratory results from patent US20180265515A1 (Genentech, Inc., priority 2015, published 2018).

What was measured:
[1] = test system: JAK1-dependent STAT6 phosphorylation downstream of IL-13 stimulation in BEAS-2B human bronchial epithelial cells; experiment: JAK1 pathway assay in BEAS-2B cells (IL-13 stimulated STAT6 phosphorylation, MSD); assay type: cell-based; details: read-out: P-STAT6 BEAS2B + IL13 IC50
Method in brief: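 BEAS-2B human bronchial epithelial cells, plated the day before in complete growth medium, were preincubated with compound for 1 hr at 37° C (0.2% DMSO final), then stimulated with IL-13 at its EC90 for 15 min. STAT6 phosphorylation in lysates was read by MSD; EC50 was taken as 50% inhibition versus DMSO control.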

[2] = target: T1, isolated recombinant JAK1 kinase domain (Homo sapiens, UniProt P23458); experiment: JAK1 enzyme assay (Caliper LabChip, Ki); assay type: biochemical; details: recombinant JAK1 kinase domain, 25 μM ATP
T1 construct: The activity of the isolated recombinant JAK1 and JAK2 kinase domain was measured
Method in brief: (§1)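 Values are Ki estimates derived with the Morrison tight-binding equation modified for competition with ATP. Activity of the recombinant kinase domains was measured as peptide phosphorylation on a Caliper LabChip after a 30-minute, 22° C reaction terminated by EDTA.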

[3] = target: T2, isolated recombinant JAK2 kinase domain (Homo sapiens, UniProt O60674); experiment: JAK2 enzyme assay (Caliper LabChip, Ki); assay type: biochemical; details: 25 μM ATP
T2 construct: The activity of the isolated recombinant JAK1 and JAK2 kinase domain was measured
Method in brief: as §1

T1 sequence (P23458 875-1153 limits assumed): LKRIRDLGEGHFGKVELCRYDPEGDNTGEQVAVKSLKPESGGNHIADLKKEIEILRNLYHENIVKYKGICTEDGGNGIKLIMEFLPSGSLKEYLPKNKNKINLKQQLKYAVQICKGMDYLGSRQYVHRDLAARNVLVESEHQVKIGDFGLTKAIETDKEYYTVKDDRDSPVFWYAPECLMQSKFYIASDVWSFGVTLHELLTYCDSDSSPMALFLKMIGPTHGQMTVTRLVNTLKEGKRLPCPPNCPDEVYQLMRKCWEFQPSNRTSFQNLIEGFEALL
T2 sequence (O60674 849-1124 limits assumed): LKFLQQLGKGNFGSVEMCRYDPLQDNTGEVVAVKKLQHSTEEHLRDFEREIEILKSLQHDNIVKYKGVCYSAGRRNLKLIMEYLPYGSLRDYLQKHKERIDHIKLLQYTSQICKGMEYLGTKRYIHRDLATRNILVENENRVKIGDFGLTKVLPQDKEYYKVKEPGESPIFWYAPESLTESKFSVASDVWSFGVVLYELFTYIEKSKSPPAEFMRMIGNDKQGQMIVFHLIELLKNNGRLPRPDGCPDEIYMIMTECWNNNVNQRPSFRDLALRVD

Row | Structure (SMILES) | Ki [2] [nM] | Ki [3] [nM] | IC50 [1] [nM]
1 | CC(C)Sc1ccc(OC(F)F)c(-c2nn(CC(=O)N3CCN(CCOCCO)CC3)cc2NC(=O)c2cnn3cccnc23)c1 [Example 122, N-[3-[2-(difluoromethoxy)-5-isopropylsulfanyl-phenyl]-1-[2-[4-[2-(2-hydroxyethoxy)ethyl]piperazin-1-yl]-2-oxo-ethyl]pyrazol-4-yl]pyrazolo[1,5-a]pyrimidine-3-carboxamide] | 0.41 | 0.85 | 42
2 | CC(C)Sc1ccc(OC(F)F)c(-c2nn(CC(=O)N3CCC(N(C)CC4OCCO4)CC3)cc2NC(=O)c2cnn3cccnc23)c1 [Example 123, N-[3-[2-(difluoromethoxy)-5-isopropylsulfanyl-phenyl]-1-[2-[4-[1,3-dioxolan-2-ylmethyl(methyl)amino]-1-piperidyl]-2-oxo-ethyl]pyrazol-4-yl]pyrazolo[1,5-a]pyrimidine-3-carboxamide] | 0.79 | 2 | 38
3 | CC(C)Sc1ccc(OC(F)F)c(-c2nn(CC(=O)N3CC4CCCNC4C3)cc2NC(=O)c2cnn3cccnc23)c1 (stereo not drawn) [Example 124, N-[1-[2-(1,2,3,4,4a,5,7,7a-octahydropyrrolo[3,4-b]pyridin-6-yl)-2-oxo-ethyl]-3-[2-(difluoromethoxy)-5-isopropylsulfanyl-phenyl]pyrazol-4-yl]pyrazolo[1,5-a]pyrimidine-3-carboxamide] | 0.92 | 1.1 | 59
4 | CC(C)Sc1ccc(OC(F)F)c(-c2nn(CC(=O)N3CCN(C4CCOCC4)CC3)cc2NC(=O)c2cnn3cccnc23)c1 [Example 125, N-[3-[2-(difluoromethoxy)-5-isopropylsulfanyl-phenyl]-1-[2-oxo-2-(4-tetrahydropyran-4-ylpiperazin-1-yl)ethyl]pyrazol-4-yl]pyrazolo[1,5-a]pyrimidine-3-carboxamide] | 0.47 | 0.94 | 17
5 | CC(C)Sc1ccc(OC(F)F)c(-c2nn(CC(=O)N3CCN(CCCO)CC3)cc2NC(=O)c2cnn3cccnc23)c1 [Example 126, N-[3-[2-(difluoromethoxy)-5-isopropylsulfanyl-phenyl]-1-[2-[4-(3-hydroxypropyl)piperazin-1-yl]-2-oxo-ethyl]pyrazol-4-yl]pyrazolo[1,5-a]pyrimidine-3-carboxamide] | 0.37 | 0.84 | 43
6 | CC(C)Sc1ccc(OC(F)F)c(-c2nn(CC(=O)N3CCN(CC4(C)COC4)CC3)cc2NC(=O)c2cnn3cccnc23)c1 [Example 127, N-[3-[2-(difluoromethoxy)-5-isopropylsulfanyl-phenyl]-1-[2-[4-[(3-methyloxetan-3-yl)methyl]piperazin-1-yl]-2-oxo-ethyl]pyrazol-4-yl]pyrazolo[1,5-a]pyrimidine-3-carboxamide] | 0.48 | 0.97 | 35
7 | CC(C)Sc1ccc(OC(F)F)c(-c2nn(CC(=O)N3CCN(C4CCOC4)CC3)cc2NC(=O)c2cnn3cccnc23)c1 (stereo not drawn) [Example 128, N-[3-[2-(difluoromethoxy)-5-isopropylsulfanyl-phenyl]-1-[2-oxo-2-(4-tetrahydrofuran-3-ylpiperazin-1-yl)ethyl]pyrazol-4-yl]pyrazolo[1,5-a]pyrimidine-3-carboxamide] | 0.58 | 1.2 | 47
8 | CC(C)Sc1ccc(OC(F)F)c(-c2nn(CC(=O)N3CCC(N4CC5CC(C4)O5)CC3)cc2NC(=O)c2cnn3cccnc23)c1 [Example 130, N-[3-[2-(difluoromethoxy)-5-isopropylsulfanyl-phenyl]-1-[2-[4-(6-oxa-3-azabicyclo[3.1.1]heptan-3-yl)-1-piperidyl]-2-oxo-ethyl]pyrazol-4-yl]pyrazolo[1,5-a]pyrimidine-3-carboxamide] | 0.57 | 1 | 19

Further lines, with some results ahead:

Row | Ki [2] [nM] | Ki [3] [nM] | Structure (SMILES) | IC50 [1] [nM]
9 | 0.42 | 0.99 | CC(C)Sc1ccc(OC(F)F)c(-c2nn(CC(=O)N3CCC(N4CC(C#N)C4)CC3)cc2NC(=O)c2cnn3cccnc23)c1 [Example 129, N-(1-[2-[4-(3-cyanoazetidin-1-yl)piperidin-1-yl]-2-oxoethyl]-3-[2-(difluoromethoxy)-5-(propan-2-ylsulfanyl)phenyl]-1H-pyrazol-4-yl)pyrazolo[1,5-a]pyrimidine-3-carboxamide] | 26
10 | 0.41 | 0.8 | CC(C)Sc1ccc(OC(F)F)c(-c2nn(CC(=O)N3CCN(CCO)CC3)cc2NC(=O)c2cnn3cccnc23)c1 [Example 131, N-[3-[2-(difluoromethoxy)-5-isopropylsulfanyl-phenyl]-1-[2-[4-(2-hydroxyethyl)piperazin-1-yl]-2-oxo-ethyl]pyrazol-4-yl]pyrazolo[1,5-a]pyrimidine-3-carboxamide] | 30
11 | 0.67 | 1.2 | CC(C)Sc1ccc(OC(F)F)c(-c2nn(CC(=O)N3CCC(C)(N4CCOCC4)CC3)cc2NC(=O)c2cnn3cccnc23)c1 [Example 132, N-[3-[2-(difluoromethoxy)-5-isopropylsulfanyl-phenyl]-1-[2-(4-methyl-4-morpholino-1-piperidyl)-2-oxo-ethyl]pyrazol-4-yl]pyrazolo[1,5-a]pyrimidine-3-carboxamide] | 36
12 | 0.43 | 0.87 | CC(C)Sc1ccc(OC(F)F)c(-c2nn(CC(=O)N3CCN(CC4CCOCC4)CC3)cc2NC(=O)c2cnn3cccnc23)c1 [Example 135, N-[3-[2-(difluoromethoxy)-5-isopropylsulfanyl-phenyl]-1-[2-oxo-2-[4-(tetrahydropyran-4-ylmethyl)piperazin-1-yl]ethyl]pyrazol-4-yl]pyrazolo[1,5-a]pyrimidine-3-carboxamide] | 24
13 | 0.49 | 1.2 | CC(C)Sc1ccc(OC(F)F)c(-c2nn(CC(=O)N3CCC(CN4CCOCC4)CC3)cc2NC(=O)c2cnn3cccnc23)c1 [Example 136, N-[3-[2-(difluoromethoxy)-5-isopropylsulfanyl-phenyl]-1-[2-[4-(morpholinomethyl)-1-piperidyl]-2-oxo-ethyl]pyrazol-4-yl]pyrazolo[1,5-a]pyrimidine-3-carboxamide] | 20
14 | 0.5 | 1.5 | CC(C)Sc1ccc(OC(F)F)c(-c2nn(CC(=O)N3CCC(C(=O)N4CCN(C)CC4)CC3)cc2NC(=O)c2cnn3cccnc23)c1 [Example 137, N-[3-[2-(difluoromethoxy)-5-isopropylsulfanyl-phenyl]-1-[2-[4-(4-methylpiperazine-1-carbonyl)-1-piperidyl]-2-oxo-ethyl]pyrazol-4-yl]pyrazolo[1,5-a]pyrimidine-3-carboxamide] | 66
15 | 0.22 | 0.17 | CC(C)Sc1ccc(OC(F)F)c(-c2nn(CC(=O)N3CCC(N4CC[S+]([O-])CC4)CC3)cc2NC(=O)c2cnn3cccnc23)c1 [Example 138, N-[3-[2-(difluoromethoxy)-5-isopropylsulfanyl-phenyl]-1-[2-oxo-2-[4-(1-oxo-1,4-thiazinan-4-yl)-1-piperidyl]ethyl]pyrazol-4-yl]pyrazolo[1,5-a]pyrimidine-3-carboxamide] | 250
